{"source": "ChEMBL document CHEMBL5113422", "about": "“Structure-based rational design enables efficient discovery of a new selective and potent AKT PROTAC degrader” (Eur J Med Chem, 2022)", "key": {"[1]": {"tested_on": "MM1.S", "test": "Antiproliferative activity against human MM1.S cells assessed as cell viability measured after 3 days by CCK-8 assay", "format": "functional, cell-based", "conditions": "72 h"}, "[2]": {"tested_on": "MM1.S", "test": "Antiproliferative activity against human MM1.S cells assessed as cell viability measured after 7 days by CCK-8 assay", "format": "functional, cell-based", "conditions": "168 h"}, "[3]": {"tested_on": "JeKo-1", "test": "Antiproliferative activity against human Jeko-1 cells expressing CRBN-knockout assessed as cell viability measured after 7 days by CCK-8 assay", "format": "functional, cell-based", "conditions": "JeKo-1, 168 h"}, "[4]": {"tested_on": "JeKo-1", "test": "Antiproliferative activity against human Jeko-1 cells assessed as cell viability measured after 7 days by CCK-8 assay", "format": "functional, cell-based", "conditions": "JeKo-1, 168 h"}, "[5]": {"test": "Antiproliferative activity against human Mino cells assessed as cell viability measured after 7 days by CCK-8 assay", "format": "functional, cell-based", "conditions": "168 h"}, "[6]": {"biological_target": "Protein cereblon/RAC-alpha serine/threonine-protein kinase (Homo sapiens) (UniProt P31749+Q96SW2)", "sequence (P31749 whole entry, looked up)": "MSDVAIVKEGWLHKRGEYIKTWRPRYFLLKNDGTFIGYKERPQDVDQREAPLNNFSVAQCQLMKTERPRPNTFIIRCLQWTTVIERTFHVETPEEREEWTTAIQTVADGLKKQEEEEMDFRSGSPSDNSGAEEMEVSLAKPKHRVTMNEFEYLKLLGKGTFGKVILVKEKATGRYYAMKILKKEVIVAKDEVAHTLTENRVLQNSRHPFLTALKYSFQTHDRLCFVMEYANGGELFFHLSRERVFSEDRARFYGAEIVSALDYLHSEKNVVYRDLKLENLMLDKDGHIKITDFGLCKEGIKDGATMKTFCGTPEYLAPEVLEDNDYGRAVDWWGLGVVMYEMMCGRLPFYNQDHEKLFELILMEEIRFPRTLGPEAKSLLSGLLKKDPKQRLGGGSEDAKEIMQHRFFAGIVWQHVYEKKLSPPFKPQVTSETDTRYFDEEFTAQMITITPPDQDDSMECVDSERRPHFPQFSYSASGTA", "sequence (Q96SW2 whole entry, looked up)": "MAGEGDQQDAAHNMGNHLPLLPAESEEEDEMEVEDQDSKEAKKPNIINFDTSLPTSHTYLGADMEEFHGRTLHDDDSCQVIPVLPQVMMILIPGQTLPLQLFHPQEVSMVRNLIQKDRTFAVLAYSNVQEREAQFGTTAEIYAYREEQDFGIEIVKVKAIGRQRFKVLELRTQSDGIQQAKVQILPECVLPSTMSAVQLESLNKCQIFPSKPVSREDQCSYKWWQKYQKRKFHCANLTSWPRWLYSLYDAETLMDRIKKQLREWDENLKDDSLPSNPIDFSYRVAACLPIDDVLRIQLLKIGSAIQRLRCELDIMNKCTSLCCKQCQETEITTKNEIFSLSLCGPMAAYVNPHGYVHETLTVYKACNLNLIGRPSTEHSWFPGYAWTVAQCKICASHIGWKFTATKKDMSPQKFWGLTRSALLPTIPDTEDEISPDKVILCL", "test": "Protac activity at CRBN/Akt1 in human Jeko-1 cells assessed as Akt1 degradation at 500 nM after 12 hrs by immunoblot analysis", "format": "cell-based"}, "[7]": {"biological_target": "T1, Protein cereblon/AKT (Homo sapiens, UniProt P31751+Q9Y243+P31749+Q96SW2)", "T1 sequence (P31751 whole entry)": "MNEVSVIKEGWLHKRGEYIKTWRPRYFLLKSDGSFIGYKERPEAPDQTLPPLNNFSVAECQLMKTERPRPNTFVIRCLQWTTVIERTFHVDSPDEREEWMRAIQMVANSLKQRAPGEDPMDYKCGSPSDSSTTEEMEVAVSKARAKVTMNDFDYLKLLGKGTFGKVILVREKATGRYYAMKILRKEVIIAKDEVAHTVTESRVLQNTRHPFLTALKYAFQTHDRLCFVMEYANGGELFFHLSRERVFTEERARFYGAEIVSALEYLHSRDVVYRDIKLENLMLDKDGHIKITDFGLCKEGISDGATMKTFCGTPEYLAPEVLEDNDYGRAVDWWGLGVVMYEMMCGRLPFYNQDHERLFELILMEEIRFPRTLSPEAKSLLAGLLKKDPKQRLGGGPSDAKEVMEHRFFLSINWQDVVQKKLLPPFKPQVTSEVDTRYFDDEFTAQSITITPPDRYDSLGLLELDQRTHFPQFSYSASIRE", "T1 sequence (Q9Y243 whole entry)": "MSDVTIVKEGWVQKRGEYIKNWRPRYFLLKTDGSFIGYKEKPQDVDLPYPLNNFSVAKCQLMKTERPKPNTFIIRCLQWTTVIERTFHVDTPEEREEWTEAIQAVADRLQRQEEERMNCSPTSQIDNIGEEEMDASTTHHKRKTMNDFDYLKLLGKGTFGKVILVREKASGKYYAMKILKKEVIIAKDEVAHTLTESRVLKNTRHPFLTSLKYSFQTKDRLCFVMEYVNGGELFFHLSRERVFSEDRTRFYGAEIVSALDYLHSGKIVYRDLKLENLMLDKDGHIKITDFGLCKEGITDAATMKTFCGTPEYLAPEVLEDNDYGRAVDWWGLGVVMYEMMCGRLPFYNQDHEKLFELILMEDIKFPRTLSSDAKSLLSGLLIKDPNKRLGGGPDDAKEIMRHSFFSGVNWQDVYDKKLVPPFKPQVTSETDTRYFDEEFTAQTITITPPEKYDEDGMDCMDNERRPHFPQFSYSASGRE", "T1 sequence (P31749 whole entry)": "as the sequence (P31749 whole entry, looked up) above", "T1 sequence (Q96SW2 whole entry)": "as the sequence (Q96SW2 whole entry, looked up) above", "test": "Protac activity at CRBN/Akt in human Jeko-1 cells assessed as decrease in Myc level after 24 hrs cotreated with Ibrutinib by immunoblot analysis", "format": "cell-based"}, "[8]": {"biological_target": "T1, Protein cereblon/AKT", "test": "Protac activity at CRBN/Akt in human Jeko-1 cells assessed as Akt degradation at 250 nM after 2 hrs by immunoblot analysis", "format": "cell-based"}, "[9]": {"biological_target": "Protein cereblon/RAC-beta serine/threonine-protein kinase (Homo sapiens) (UniProt P31751+Q96SW2)", "sequence (P31751 whole entry, looked up)": "as the sequence (P31751 whole entry) above", "sequence (Q96SW2 whole entry, looked up)": "as the sequence (Q96SW2 whole entry, looked up) above", "test": "Protac activity at CRBN/Akt2 in human Jeko-1 cells assessed as Akt2 degradation at 500 nM after 12 hrs by immunoblot analysis", "format": "cell-based"}, "[10]": {"biological_target": "T1, Protein cereblon/AKT", "test": "Protac activity at CRBN/Akt in human Jeko-1 cells assessed as Akt degradation after 24 hrs by immunoblot analysis relative to control", "format": "cell-based"}, "[11]": {"tested_on": "JeKo-1", "test": "Antiproliferative activity against human Jeko-1 cells assessed as cell viability measured after 3 days cotreated with Ibrutinib by CCK-8 assay", "format": "functional, cell-based", "conditions": "time 3.0 day"}, "[12]": {"biological_target": "T1, Protein cereblon/AKT", "test": "Protac activity at CRBN/Akt in human Jeko-1 cells assessed as Akt degradation at 250 nM after 24 hrs by immunoblot analysis relative to control", "format": "cell-based"}, "[13]": {"biological_target": "Protein cereblon/Zinc finger protein Aiolos (Homo sapiens) (UniProt Q96SW2+Q9UKT9)", "sequence (Q96SW2 whole entry, looked up)": "as above", "sequence (Q9UKT9 whole entry, looked up)": "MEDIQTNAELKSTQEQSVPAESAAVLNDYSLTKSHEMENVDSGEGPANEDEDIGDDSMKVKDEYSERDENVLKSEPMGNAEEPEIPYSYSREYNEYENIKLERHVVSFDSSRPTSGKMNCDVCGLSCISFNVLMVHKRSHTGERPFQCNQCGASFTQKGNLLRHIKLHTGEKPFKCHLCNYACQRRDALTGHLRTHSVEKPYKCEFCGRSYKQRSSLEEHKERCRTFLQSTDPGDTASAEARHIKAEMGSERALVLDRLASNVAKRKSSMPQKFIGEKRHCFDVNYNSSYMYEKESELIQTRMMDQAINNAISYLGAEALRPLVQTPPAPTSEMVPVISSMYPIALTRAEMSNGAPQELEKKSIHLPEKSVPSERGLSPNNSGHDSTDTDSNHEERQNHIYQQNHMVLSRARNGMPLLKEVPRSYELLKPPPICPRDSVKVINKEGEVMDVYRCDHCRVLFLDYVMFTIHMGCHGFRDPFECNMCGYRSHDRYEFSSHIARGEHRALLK", "test": "Protac activity at CRBN/IKZF3 in human Jeko-1 cells assessed as IKZF3 degradation at 500 nM after 12 hrs by immunoblot analysis", "format": "cell-based"}, "[14]": {"biological_target": "T1, Protein cereblon/AKT", "test": "Protac activity at CRBN/Akt in human Jeko-1 cells assessed as decrease in phosphorylated GSK3beta level after 24 hrs by immunoblot analysis", "format": "cell-based", "conditions": "dose 10-1000 nM"}}, "note": "Calls of active or inactive are those of the source. No cut-off for these calls is given here.", "data": [{"smiles": "COCCOCCOCCNc1cccc2c1C(=O)N(C1CCC(=O)NC1=O)C2=O", "note": "(stereo not given)", "values": [{"measurement": "IC50", "setting": "[1]", "value": 4790, "unit": "nM"}, {"measurement": "IC50", "setting": "[2]", "value": 40.3, "unit": "nM"}, {"measurement": "IC50", "setting": "[3]", "value": "> 20000", "unit": "nM"}, {"measurement": "IC50", "setting": "[4]", "value": "> 20000", "unit": "nM"}, {"measurement": "IC50", "setting": "[5]", "value": "> 20000", "unit": "nM"}]}, {"smiles": "Cn1ncc(Cl)c1-c1cc(C(=O)N[C@@H]2CN[C@H](CC(=O)Nc3ccc(OCCOCCOCCNc4cccc5c4C(=O)N(C4CCC(=O)NC4=O)C5=O)cc3)C[C@H]2c2cccc(F)c2)oc1Cl", "note": "(stereo not given in full)", "values": [{"measurement": "IC50", "setting": "[1]", "value": 79, "unit": "nM"}, {"measurement": "IC50", "setting": "[2]", "value": 23.4, "unit": "nM"}, {"measurement": "Activity", "setting": "[6]", "value": "Active"}, {"measurement": "IC50", "setting": "[3]", "value": 2320, "unit": "nM"}, {"measurement": "Activity", "setting": "[7]", "value": "Active"}, {"measurement": "IC50", "setting": "[4]", "value": 205, "unit": "nM"}, {"measurement": "Activity", "setting": "[8]", "value": "Active"}, {"measurement": "IC50", "setting": "[5]", "value": 2270, "unit": "nM"}, {"measurement": "Activity", "setting": "[9]", "value": "Active"}, {"measurement": "DC50", "setting": "[10]", "value": 28, "unit": "nM"}, {"measurement": "Activity", "setting": "[11]", "value": "Active"}, {"measurement": "Activity", "setting": "[12]", "value": 95, "unit": "%"}, {"measurement": "Activity", "setting": "[13]", "value": "Active"}, {"measurement": "Activity", "setting": "[14]", "value": "Active"}]}, {"smiles": "Cn1ncc(Cl)c1-c1ccc(C(=O)N[C@@H]2CN[C@H](CC(=O)Nc3ccc(OCCOCCOCCNc4cccc5c4C(=O)N(C4CCC(=O)NC4=O)C5=O)cc3)C[C@H]2c2cccc(F)c2)s1", "note": "(stereo not given in full)", "values": [{"measurement": "Activity", "setting": "[12]", "value": 95, "unit": "%"}]}, {"smiles": "Nc1cccc2c1CN(C1CCC(=O)NC1=O)C2=O", "note": "(stereo not given) [LENALIDOMIDE]", "values": [{"measurement": "IC50", "setting": "[1]", "value": "> 20000", "unit": "nM"}, {"measurement": "IC50", "setting": "[2]", "value": 70.2, "unit": "nM"}, {"measurement": "IC50", "setting": "[3]", "value": "> 20000", "unit": "nM"}, {"measurement": "IC50", "setting": "[4]", "value": "> 20000", "unit": "nM"}, {"measurement": "IC50", "setting": "[5]", "value": "> 20000", "unit": "nM"}]}, {"smiles": "CNC(=O)C[C@@H]1C[C@@H](c2cccc(F)c2)[C@H](NC(=O)c2ccc(-c3c(Cl)cnn3C)s2)CN1", "values": [{"measurement": "IC50", "setting": "[1]", "value": 72.9, "unit": "nM"}, {"measurement": "IC50", "setting": "[2]", "value": 72.4, "unit": "nM"}, {"measurement": "IC50", "setting": "[3]", "value": 350, "unit": "nM"}, {"measurement": "IC50", "setting": "[4]", "value": 506, "unit": "nM"}, {"measurement": "IC50", "setting": "[5]", "value": 3370, "unit": "nM"}]}, {"smiles": "Nc1cccc2c1C(=O)N(C1CCC(=O)NC1=O)C2=O", "note": "(stereo not given) [POMALIDOMIDE]", "values": [{"measurement": "IC50", "setting": "[1]", "value": 838, "unit": "nM"}, {"measurement": "IC50", "setting": "[2]", "value": 21.9, "unit": "nM"}, {"measurement": "IC50", "setting": "[3]", "value": "> 20000", "unit": "nM"}, {"measurement": "IC50", "setting": "[4]", "value": 2620, "unit": "nM"}, {"measurement": "IC50", "setting": "[5]", "value": 16500, "unit": "nM"}]}]}
